Results taken from PubChem BioAssay (NCI).
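In this assay, cells in 96-well plates receive the compound at five concentrations for 48 hours. Endpoints are linearly interpolated between the surrounding concentrations. GI50 = concentration required for 50% inhibition of growth. TGI: concentration producing complete growth inhibition.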

Columns and labels:
Assay in all cases: NCI anticancer screen, dose series, 48 h
MALME-3M melanoma = system: MALME-3M melanoma
HCC-2998 colon = system: HCC-2998 colon
SK-MEL-5 melanoma = system: SK-MEL-5 melanoma
ACHN renal = system: ACHN renal
MOLT-4 leukemia = system: MOLT-4 leukemia
OVCAR-5 ovarian = system: OVCAR-5 ovarian
SF-268 CNS = system: SF-268 CNS
786-0 renal = system: 786-0 renal
OVCAR-3 ovarian = system: OVCAR-3 ovarian
SNB-75 CNS = system: SNB-75 CNS
BT-549 breast = system: BT-549 breast
TK-10 renal = system: TK-10 renal
HT29 colon = system: HT29 colon
CCRF-CEM leukemia = system: CCRF-CEM leukemia
SF-295 CNS = system: SF-295 CNS
HS 578T breast = system: HS 578T breast
RXF 393 renal = system: RXF 393 renal
MDA-MB-435 = system: MDA-MB-435
MCF7 breast = system: MCF7 breast
IGROV1 ovarian = system: IGROV1 ovarian
NCI-H522 lung = system: NCI-H522 lung
M14 melanoma = system: M14 melanoma
SN12C renal = system: SN12C renal
SNB-19 CNS = system: SNB-19 CNS
COLO 205 colon = system: COLO 205 colon
PC-3 prostate = system: PC-3 prostate
K-562 leukemia = system: K-562 leukemia
HCT-116 colon = system: HCT-116 colon
OVCAR-4 ovarian = system: OVCAR-4 ovarian
HOP-62 NSCLC = system: HOP-62 NSCLC
OVCAR-8 ovarian = system: OVCAR-8 ovarian
UACC-62 melanoma = system: UACC-62 melanoma
CAKI-1 renal = system: CAKI-1 renal
HL-60(TB) leukemia = system: HL-60(TB) leukemia
MDA-MB-231 breast = system: MDA-MB-231 breast
SK-MEL-28 melanoma = system: SK-MEL-28 melanoma
T-47D breast = system: T-47D breast
DU-145 prostate = system: DU-145 prostate
HCT-15 colon = system: HCT-15 colon
NCI/ADR-RES ovarian = system: NCI/ADR-RES ovarian
NCI-H23 lung = system: NCI-H23 lung
RPMI-8226 leukemia = system: RPMI-8226 leukemia
UO-31 renal = system: UO-31 renal
NCI-H460 lung = system: NCI-H460 lung
SF-539 CNS = system: SF-539 CNS
NCI-H226 lung = system: NCI-H226 lung
SK-OV-3 ovarian = system: SK-OV-3 ovarian
KM12 colon = system: KM12 colon
U251 CNS = system: U251 CNS
SW-620 colon = system: SW-620 colon
A498 renal = system: A498 renal
A549 NSCLC = system: A549 NSCLC
UACC-257 melanoma = system: UACC-257 melanoma
SR leukemia = system: SR leukemia
EKVX NSCLC = system: EKVX NSCLC
HOP-92 NSCLC = system: HOP-92 NSCLC
SK-MEL-2 melanoma = system: SK-MEL-2 melanoma

Compound: CN(C)c1ncc(-c2ccc(C(F)(F)F)cc2)c(NC2CCCCCC2)n1
- GI50 (MALME-3M melanoma): 14.4 µM
- TGI (MALME-3M melanoma): 40.4 µM
- GI50 (HCC-2998 colon): 13.8 µM
- TGI (HCC-2998 colon): 28.8 µM
- GI50 (SK-MEL-5 melanoma): 14 µM
- TGI (SK-MEL-5 melanoma): 28.3 µM
- GI50 (ACHN renal): 16 µM
- TGI (ACHN renal): 31.2 µM
- GI50 (MOLT-4 leukemia): 14.8 µM
- TGI (MOLT-4 leukemia): 34.7 µM
- GI50 (OVCAR-5 ovarian): 18.2 µM
- TGI (OVCAR-5 ovarian): 38.8 µM
- GI50 (SF-268 CNS): 22.7 µM
- TGI (SF-268 CNS): 96.1 µM
- GI50 (786-0 renal): 14.8 µM
- TGI (786-0 renal): 33.4 µM
- GI50 (OVCAR-3 ovarian): 16.3 µM
- TGI (OVCAR-3 ovarian): 33.3 µM
- GI50 (SNB-75 CNS): 20.6 µM
- TGI (SNB-75 CNS): 93.8 µM
- GI50 (BT-549 breast): 20.4 µM
- TGI (BT-549 breast): 44.4 µM
- GI50 (TK-10 renal): 40.6 µM
- TGI (TK-10 renal): > 100 µM
- GI50 (HT29 colon): 11.4 µM
- TGI (HT29 colon): 32.9 µM
- GI50 (CCRF-CEM leukemia): 16.4 µM
- TGI (CCRF-CEM leukemia): 35.8 µM
- GI50 (SF-295 CNS): 17.5 µM
- TGI (SF-295 CNS): 37.4 µM
- GI50 (HS 578T breast): 23.1 µM
- TGI (HS 578T breast): > 100 µM
- GI50 (RXF 393 renal): 10.8 µM
- TGI (RXF 393 renal): 27.2 µM
- GI50 (MDA-MB-435): 24.8 µM
- TGI (MDA-MB-435): > 100 µM
- GI50 (MCF7 breast): 11.4 µM
- TGI (MCF7 breast): 24.9 µM
- GI50 (IGROV1 ovarian): 32.5 µM
- TGI (IGROV1 ovarian): > 100 µM
- GI50 (NCI-H522 lung): 11.2 µM
- TGI (NCI-H522 lung): 30.2 µM
- GI50 (M14 melanoma): 24 µM
- TGI (M14 melanoma): > 100 µM
- GI50 (SN12C renal): 17.3 µM
- TGI (SN12C renal): 62.2 µM
- GI50 (SNB-19 CNS): 15.6 µM
- TGI (SNB-19 CNS): 37.5 µM
- GI50 (COLO 205 colon): 14.4 µM
- TGI (COLO 205 colon): 30.6 µM
- GI50 (PC-3 prostate): 20.2 µM
- TGI (PC-3 prostate): 87.1 µM
- GI50 (K-562 leukemia): 14.6 µM
- TGI (K-562 leukemia): 41.1 µM
- GI50 (HCT-116 colon): 10.4 µM
- TGI (HCT-116 colon): 53.4 µM
- GI50 (OVCAR-4 ovarian): 12.9 µM
- TGI (OVCAR-4 ovarian): 56.6 µM
- GI50 (HOP-62 NSCLC): 24.5 µM
- TGI (HOP-62 NSCLC): 61 µM
- GI50 (OVCAR-8 ovarian): 25.8 µM
- TGI (OVCAR-8 ovarian): > 100 µM
- GI50 (UACC-62 melanoma): 14.7 µM
- TGI (UACC-62 melanoma): 35.7 µM
- GI50 (CAKI-1 renal): 23.1 µM
- TGI (CAKI-1 renal): > 100 µM
- GI50 (HL-60(TB) leukemia): 15 µM
- TGI (HL-60(TB) leukemia): 34 µM
- GI50 (MDA-MB-231 breast): 13.3 µM
- TGI (MDA-MB-231 breast): 28.8 µM
- GI50 (SK-MEL-28 melanoma): 19.6 µM
- TGI (SK-MEL-28 melanoma): 60.3 µM
- GI50 (T-47D breast): 25 µM
- TGI (T-47D breast): > 100 µM
- GI50 (DU-145 prostate): 27.1 µM
- TGI (DU-145 prostate): > 100 µM
- GI50 (HCT-15 colon): 17.1 µM
- TGI (HCT-15 colon): 48.8 µM
- GI50 (NCI/ADR-RES ovarian): 22.2 µM
- TGI (NCI/ADR-RES ovarian): 80.6 µM
- GI50 (NCI-H23 lung): 17.3 µM
- TGI (NCI-H23 lung): 57.3 µM
- GI50 (RPMI-8226 leukemia): 6.51 µM
- TGI (RPMI-8226 leukemia): 24.4 µM
- GI50 (UO-31 renal): 12.6 µM
- TGI (UO-31 renal): 35.2 µM
- GI50 (NCI-H460 lung): 16.2 µM
- TGI (NCI-H460 lung): 35.9 µM
- GI50 (SF-539 CNS): 21.7 µM
- TGI (SF-539 CNS): 55.2 µM
- GI50 (NCI-H226 lung): 12.6 µM
- TGI (NCI-H226 lung): 28.8 µM
- GI50 (SK-OV-3 ovarian): 29 µM
- TGI (SK-OV-3 ovarian): 95.4 µM
- GI50 (KM12 colon): 20.5 µM
- TGI (KM12 colon): 63.3 µM
- GI50 (U251 CNS): 14.7 µM
- TGI (U251 CNS): 30 µM
- GI50 (SW-620 colon): 15 µM
- TGI (SW-620 colon): 37.3 µM
- GI50 (A498 renal): 12.4 µM
- TGI (A498 renal): 29.4 µM
- GI50 (A549 NSCLC): 18.2 µM
- TGI (A549 NSCLC): 57.1 µM
- GI50 (UACC-257 melanoma): 16.8 µM
- TGI (UACC-257 melanoma): 54 µM

Compound: N=C(N)c1ccc(-c2ccc(-c3ccccc3)s2)cc1
- GI50 (MALME-3M melanoma): 1.45 µM
- TGI (MALME-3M melanoma): 2.83 µM
- GI50 (SK-MEL-5 melanoma): 1.77 µM
- TGI (SK-MEL-5 melanoma): 3.19 µM
- GI50 (ACHN renal): 1.67 µM
- TGI (ACHN renal): 3.03 µM
- GI50 (OVCAR-5 ovarian): 1.59 µM
- TGI (OVCAR-5 ovarian): 2.94 µM
- GI50 (SR leukemia): 0.668 µM
- TGI (SR leukemia): 4.13 µM
- GI50 (BT-549 breast): 3.22 µM
- TGI (BT-549 breast): 19.9 µM
- GI50 (CCRF-CEM leukemia): 1.97 µM
- TGI (CCRF-CEM leukemia): 4.57 µM
- GI50 (HS 578T breast): 1.94 µM
- TGI (HS 578T breast): 5.04 µM
- GI50 (RXF 393 renal): 1.72 µM
- TGI (RXF 393 renal): 3.39 µM
- GI50 (MDA-MB-435): 1.66 µM
- TGI (MDA-MB-435): 3.03 µM
- GI50 (M14 melanoma): 1.68 µM
- TGI (M14 melanoma): 3.51 µM
- GI50 (SN12C renal): 1.72 µM
- TGI (SN12C renal): 3.41 µM
- GI50 (PC-3 prostate): 1.76 µM
- TGI (PC-3 prostate): 3.47 µM
- GI50 (OVCAR-4 ovarian): 1.59 µM
- TGI (OVCAR-4 ovarian): 3.21 µM
- GI50 (EKVX NSCLC): 2.65 µM
- TGI (EKVX NSCLC): 11.4 µM
- GI50 (HOP-92 NSCLC): 1.55 µM
- TGI (HOP-92 NSCLC): 3.34 µM
- GI50 (UACC-62 melanoma): 1.75 µM
- TGI (UACC-62 melanoma): 3.42 µM
- GI50 (CAKI-1 renal): 1.58 µM
- TGI (CAKI-1 renal): 2.92 µM
- GI50 (MDA-MB-231 breast): 1.43 µM
- TGI (MDA-MB-231 breast): 2.87 µM
- GI50 (SK-MEL-28 melanoma): 1.67 µM
- TGI (SK-MEL-28 melanoma): 3.13 µM
- GI50 (SK-MEL-2 melanoma): 1.97 µM
- TGI (SK-MEL-2 melanoma): 4.1 µM
- GI50 (T-47D breast): 1.83 µM
- TGI (T-47D breast): 4.79 µM
- GI50 (DU-145 prostate): 1.75 µM
- TGI (DU-145 prostate): 3.17 µM
- GI50 (NCI-H23 lung): 2 µM
- TGI (NCI-H23 lung): 4.53 µM
- GI50 (UO-31 renal): 1.48 µM
- TGI (UO-31 renal): 2.81 µM
- GI50 (SF-539 CNS): 1.63 µM
- TGI (SF-539 CNS): 3 µM
- GI50 (NCI-H226 lung): 3.01 µM
- TGI (NCI-H226 lung): 14.6 µM
- GI50 (SK-OV-3 ovarian): 2.42 µM
- TGI (SK-OV-3 ovarian): 7.27 µM
- GI50 (A549 NSCLC): 2.14 µM
- TGI (A549 NSCLC): 4.73 µM
